In paper PMC4735867, “Leukotriene E4 is a full functional agonist for human cysteinyl leukotriene type 1 receptor-dependent gene expression” (Scientific Reports, 2016):

Target: T1, CysLT1 (cysteinyl leukotriene type 1 receptor) (Homo sapiens, UniProt Q9Y271)
T1 construct: gene CYSLTR1
T1 sequence (Q9Y271 1-337): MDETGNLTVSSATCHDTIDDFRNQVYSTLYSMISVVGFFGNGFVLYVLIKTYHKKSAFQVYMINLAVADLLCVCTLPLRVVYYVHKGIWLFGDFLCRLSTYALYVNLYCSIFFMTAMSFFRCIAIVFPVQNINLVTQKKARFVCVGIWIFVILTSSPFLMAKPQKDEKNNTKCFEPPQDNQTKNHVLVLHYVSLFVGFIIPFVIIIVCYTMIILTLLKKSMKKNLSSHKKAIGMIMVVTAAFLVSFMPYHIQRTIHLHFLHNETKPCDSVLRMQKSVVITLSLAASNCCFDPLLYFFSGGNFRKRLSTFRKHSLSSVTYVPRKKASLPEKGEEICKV
Type: cell-based

CC(C)(O)c1ccccc1CC[C@@H](SCC1(CC(=O)O)CC1)c1cccc(/C=C/c2ccc3ccc(Cl)cc3n2)c1 [Montelukast]
antagonism (100 nmol/L) of LTD4/LTE4-induced calcium mobilisation and CCL4 expre: Montelukast fully inhibiting LTE4 responses in LAD2 as well as LTD4 responses in LAD2 and LUVA cells
